The term inhibition denotes the relative decrease from the control value, in per cent.

The target of this assay is T1, PDGFRA (PDGFR alpha) (Homo sapiens, UniProt P16234).
T1 construct: purchased Thermo Fisher Scientific (Life Technologies) SelectScreen
Briefly: SelectScreen Z'LYTE. Type of assay: biochemical. In outline:
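NU5455 was profiled across the SelectScreen Broad panel of kinase activity and binding assays. Z'LYTE reactions such as CSF1R ran at apparent Km ATP, while the Adapta CAMK1 assay used ATP listed as 10. Values are given as percent.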

T1 sequence (P16234 24-1089): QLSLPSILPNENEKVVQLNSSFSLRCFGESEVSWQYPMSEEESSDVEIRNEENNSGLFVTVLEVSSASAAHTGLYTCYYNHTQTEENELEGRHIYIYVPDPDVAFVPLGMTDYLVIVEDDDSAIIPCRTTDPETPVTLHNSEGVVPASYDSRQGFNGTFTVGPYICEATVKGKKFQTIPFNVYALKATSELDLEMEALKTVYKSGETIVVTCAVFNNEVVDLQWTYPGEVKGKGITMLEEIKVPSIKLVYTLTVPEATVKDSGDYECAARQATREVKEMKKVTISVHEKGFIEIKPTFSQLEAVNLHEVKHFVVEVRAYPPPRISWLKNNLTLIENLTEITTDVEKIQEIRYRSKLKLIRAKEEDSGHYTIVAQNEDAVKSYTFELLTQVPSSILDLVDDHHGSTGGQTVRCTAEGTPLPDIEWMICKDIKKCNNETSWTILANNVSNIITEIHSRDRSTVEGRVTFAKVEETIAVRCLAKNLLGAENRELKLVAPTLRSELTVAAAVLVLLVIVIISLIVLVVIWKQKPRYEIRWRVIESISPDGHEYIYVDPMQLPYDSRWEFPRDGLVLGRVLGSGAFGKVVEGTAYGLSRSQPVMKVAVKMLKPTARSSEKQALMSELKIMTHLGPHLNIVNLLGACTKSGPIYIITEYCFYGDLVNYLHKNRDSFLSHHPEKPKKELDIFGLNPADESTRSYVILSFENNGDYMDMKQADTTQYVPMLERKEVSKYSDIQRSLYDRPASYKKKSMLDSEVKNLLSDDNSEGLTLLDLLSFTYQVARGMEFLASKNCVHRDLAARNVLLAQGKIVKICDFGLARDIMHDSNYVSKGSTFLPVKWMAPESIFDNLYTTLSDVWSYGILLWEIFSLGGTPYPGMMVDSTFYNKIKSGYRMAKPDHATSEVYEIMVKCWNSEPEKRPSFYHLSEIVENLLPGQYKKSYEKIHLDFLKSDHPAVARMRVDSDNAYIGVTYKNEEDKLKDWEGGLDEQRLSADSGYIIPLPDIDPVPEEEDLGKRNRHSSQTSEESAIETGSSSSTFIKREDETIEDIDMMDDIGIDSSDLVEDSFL

For the compound `CN(C(=O)CN1CCOCC1)c1ccc2sc3c(-c4cccc5c(=O)cc(N6CC7CCC(C6)O7)oc45)cccc3c2c1` [NU5455], the inhibition at 1 µM is -6.8%.

These data come from article PMC6934184, “Selective DNA-PKcs inhibition extends the therapeutic index of localized radiotherapy and chemotherapy” (The Journal of Clinical Investigation, 2019).
